According to article PMC4436800 (Frontiers in Neuroscience, 2015):

biological target: T1, Rhopr5HTR2b (R. prolixus serotonin type 2b receptor) (Rhodnius prolixus, UniProt A0A0H4TRR1); experiment: aequorin luminescence, inhibition of […] serotonin response by […] antagonist; type: cell-based
T1 construct: gene 5HT-R2; complete open reading frame (Genbank KP325472) in pcDNA3.1, transiently expressed in CHOK1-aeq cells
T1 sequence (A0A0H4TRR1 1-703): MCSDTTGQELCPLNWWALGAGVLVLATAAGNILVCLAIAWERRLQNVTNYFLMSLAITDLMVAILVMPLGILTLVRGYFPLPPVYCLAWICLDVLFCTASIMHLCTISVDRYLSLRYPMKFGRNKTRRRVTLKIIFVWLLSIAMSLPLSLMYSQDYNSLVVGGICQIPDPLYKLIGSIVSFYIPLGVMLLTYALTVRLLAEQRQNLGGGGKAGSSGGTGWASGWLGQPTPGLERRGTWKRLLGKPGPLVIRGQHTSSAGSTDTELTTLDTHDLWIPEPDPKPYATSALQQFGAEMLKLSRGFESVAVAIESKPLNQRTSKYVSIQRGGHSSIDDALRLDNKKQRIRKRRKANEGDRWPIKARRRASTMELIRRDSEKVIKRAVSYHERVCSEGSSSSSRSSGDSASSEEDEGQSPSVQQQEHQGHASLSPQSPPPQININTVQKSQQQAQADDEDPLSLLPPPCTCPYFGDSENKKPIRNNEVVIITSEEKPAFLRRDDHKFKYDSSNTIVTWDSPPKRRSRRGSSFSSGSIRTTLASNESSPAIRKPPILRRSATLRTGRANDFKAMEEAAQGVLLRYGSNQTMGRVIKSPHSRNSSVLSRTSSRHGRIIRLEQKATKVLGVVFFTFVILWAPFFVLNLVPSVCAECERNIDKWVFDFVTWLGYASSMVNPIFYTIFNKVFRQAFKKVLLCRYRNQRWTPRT

| Structure (SMILES) | % inhibition at 10 μM (range for all five antagonists) |
| --- | --- |
| O=C(c1ccc(F)cc1)C1CCN(CCn2c(=O)[nH]c3ccccc3c2=O)CC1 [ketanserin] | ~ 70–50 % inhibition at 10 μM (range for all five antagonists) |
| CN1CCC(=C2c3ccccc3C=Cc3ccccc32)CC1 [cyproheptadine] | ~ 70–50 % inhibition at 10 μM (range for all five antagonists) |
| O=C(CCCN1CCC2(CC1)C(=O)NCN2c1ccccc1)c1ccc(F)cc1 [spiperone] | ~ 70–50 % inhibition at 10 μM (range for all five antagonists) |
| CC(C)NCC(O)COc1cccc2ccccc12 (stereo not drawn) [propranolol] | ~ 70–50 % inhibition at 10 μM (range for all five antagonists) |
| CN1CCN2c3ccccc3Cc3ccccc3C2C1 (stereo not drawn) [mianserin] | ~ 70–50 % inhibition at 10 μM (range for all five antagonists) |

biological target: T1, Rhopr5HTR2b (R. prolixus serotonin type 2b receptor); experiment: aequorin calcium luminescence assay, agonist dose-response in transfected CHOK1-aeq cells; type: cell-based

| Structure (SMILES) | EC50 [µM] |
| --- | --- |
| CC(N)Cc1c[nH]c2ccc(O)cc12 (stereo not drawn) [alpha-methyl serotonin] | 3.2 |
